Assay results taken from PMC10363480 (Plant Communications, 2023).

The sequences below were run on mitochondria or chloroplast of Chlamydomonas reinhardtii (assay: Subcellular localization of Venus reporter by epifluorescence microscopy (manual targeting assignment)). Conditions: manual targeting assignment of the Venus reporter construct in Chlamydomonas: Neither / Mitochondria / Chloroplast / Dual, (partial) = partial targeting.
Type: cell-based
Excerpt: In a bid to keep peptidase recognition sites intact, C-terminal elements were designed to start 10 residues upstream of the cleavage site, even though this slightly truncates TP helices. Peptides carrying the 15-amino-acid cTP N-terminus (cTP-N) will be denoted ^cP. Similarly, peptides with C-terminal elements from RCA1-cTP (cTP-C) or CAG2-mTP (mTP-C) will be denoted P^c or P^m, respectively. Peptide variants are used to drive the subcellular localization of a Venus fluorescent reporter protein, which was assessed using fluorescence microscopy; in Figure 2, an executive overview of observed Venus localization is presented for all constructs. […] Here, we use automated image segmentation to validate our subcellular localization assessment (Supplemental Figure 2, Supplemental text). […] The reader will be asked to return to Figure 2 throughout, with Figures 3 and 4 providing selected micrographs as examples highlighting particular points of interest.
Chlamydomonas TP sequences were amplified from genomic DNA extracted from strain T222+ (CC-5101). Templates for codon-optimized HA-RAMP, RP, and R→K modified TP sequences were obtained by gene synthesis (Eurofins Genomics). Correct assembly was verified by sequencing (Eurofins Genomics). Linear transformation cassettes were generated through restriction digestion with EcoRV (New England Biolabs).
Constructs were transformed into wild-type strain T222+ (CC-5101) using a protocol described previously ([Onishi and Pringle, 2016]), except using 4 μl of DNA at 2 μg/μl.
Strains with suspected mitochondrial targeting were treated with 0.1 μM MitoTracker Red CMXRos (Thermo Fisher Scientific) in growth medium for 30 min in the dark and washed with TAP prior to taking images.
Legend for Fig. S3 – S20. Three independent transformant lines (Strains 1-3) are shown for each combination of modifications (A-L), represented by a cartoon and a shorthand description (cf. Fig.
2). Where a construct was interpreted as generating reporter localization in mitochondria or […]
Epifluorescence microscopy images of typical cells for each strain are shown. MitoTracker fluorescence, false-coloured in cyan, indicates the position of mitochondria (although parts of the cell exterior are sometimes also stained). False-coloured yellow fluorescence from the Venus channel reports on the subcellular localization of the fluorescent reporter. Chlorophyll autofluorescence, shown in magenta, indicates the location of the chloroplast. Scale bars are 5µm. Brightness (Br.) was adjusted for clarity: fluorescence intensity values were restricted to the range shown for each channel by matching coloured rectangles. Intensity scales to 0 at the bottom of the panel, and to 65535 at the top.
On the right-hand side, quantitative information associated with each construct is shown. Data was normalized such that averages range from 0 to 1 across all constructs (cf. Fig S2). Individual cell measurements may exceed this range; for clarity, the range shown here is limited to -0.5 to 1.5, with outliers that have more extreme values shown as lying beyond a dashed line. Strain 1 is plotted as circles, strain 2 as squares, and strain 3 as diamonds. Venus: Fluorescence plate reader data of transformants screened for this construct (Venus fluorescence, accounting for cell density using linear regression of OD750 and chlorophyll fluorescence trained on ‘no venus’ control transformants). Transformants that were not selected after screening are shown as small grey circles. A colour code ranging from white (low Venus fluorescence) to black (high Venus fluorescence) is used for strains 1-3 and the average thereof. Automated image quantification data: pyr/chl: Venus channel signal in the pyrenoid relative to in the chlorophyll region; mt/cell: Venus channel signal in mitochondria relative to the whole cell. Each point corresponds to a single cell.
The colour code code is the same as that below distributions in Fig. S2, i.e. blue highlights the […]

Row | Sequence | Localisation
1 | MGGAKVATK [CH.K] | Neither
2 | MGGAKVATKLTQTAESFRGVSSQFFDAPNGPSVKQVLIEDEW [CH.K.m] | Neither
3 | MGGAKVATKSVKKAQLQVVASSKKQMGKWKSIDAGVDASDDQ [CH.K.c] | Neither
4 | MGGARVATR [CH.R] | Neither
5 | MGGARVATRLTQTAESFRGVSSQFFDAPNGPSVKQVLIEDEW [CH.R.m] | Neither
6 | MGGARVATRSVRRAQLQVVASSRKQMGRWRSIDAGVDASDDQ [CH.R.c] | Chloroplast
7 | MGLLLDTLRGAARDIAGIALERLRCRITGCRP [R2G.R] | Mitochondria (partial)
8 | MGLLLDTLRGAARDIAGIALERLRCRITGCRPLTQTAESFRGVSSQFFDAPNGPSVKQVLIEDEW [R2G.R.m] | Mitochondria
9 | MGLLLDTLRGAARDIAGIALERLRCRITGCRPSVRRAQLQVVASSRKQMGRWRSIDAGVDASDDQ [R2G.R.c] | Neither
10 | MGRIPVRAIRRAGAAIGRGLRAINIASTAHDVYSFFRPRHRRR [SIM.R] | Neither
11 | MGRIPVRAIRRAGAAIGRGLRAINIASTAHDVYSFFRPRHRRRLTQTAESFRGVSSQFFDAPNGPSVKQVLIEDEW [SIM.R.m] | Neither
12 | MGRIPVRAIRRAGAAIGRGLRAINIASTAHDVYSFFRPRHRRRSVRRAQLQVVASSRKQMGRWRSIDAGVDASDDQ [SIM.R.c] | Neither
13 | MGWIRDFGRRIERVGQHTRDATIQTIAVAQQAANVAATLRG [S1D.R] | Neither
14 | MGWIRDFGRRIERVGQHTRDATIQTIAVAQQAANVAATLRGLTQTAESFRGVSSQFFDAPNGPSVKQVLIEDEW [S1D.R.m] | Neither
15 | MGWIRDFGRRIERVGQHTRDATIQTIAVAQQAANVAATLRGSVRRAQLQVVASSRKQMGRWRSIDAGVDASDDQ [S1D.R.c] | Chloroplast (partial)
16 | MLKKVGQSLVPFAKAG [MH.K] | Neither
17 | MLKKVGQSLVPFAKAGLTQTAESFKGVSSQFFDAPNGPSVKQVLIEDEW [MH.K.m] | Neither
18 | MLKKVGQSLVPFAKAGSVRRAQLQVVASSRKQMGRWRSIDAGVDASDDQ [MH.K.c] | Dual
19 | MLKRVGQSLVPFARAG [MH.R] | Mitochondria (partial)
20 | MLKRVGQSLVPFARAGLTQTAESFRGVSSQFFDAPNGPSVKQVLIEDEW [MH.R.m] | Mitochondria (partial)
21 | MLKRVGQSLVPFARAGSVRRAQLQVVASSRKQMGRWRSIDAGVDASDDQ [MH.R.c] | Dual
22 | MLTQTAESFRGVSSQFFDAPNGPSVKQVLIEDEW [-.m] | Neither

Same assay, conditions: peptide-Venus reporter construct expressed in Chlamydomonas reinhardtii; manual targeting assignment (Neither / Mitochondria / Chloroplast / Dual; partial = partial targeting)

Row | Sequence | Localisation
23 | MFLPLLAGLAANFLPKIFCKITRKCSVRRAQLQVVASSRKQMGRWRSIDAGVDASDDQ [B1E.K.c] | Neither
24 | MFLPLLAGLAANFLPRIFCRITRRC [B1E.R] | Neither
25 | MFLPLLAGLAANFLPRIFCRITRRCLTQTAESFRGVSSQFFDAPNGPSVKQVLIEDEW [B1E.R.m] | Neither
26 | MFLPLLAGLAANFLPRIFCRITRRCSVRRAQLQVVASSRKQMGRWRSIDAGVDASDDQ [B1E.R.c] | Neither
27 | MGIGKFLHSAKKFGKAFVGEIMNS [MII.K] | Mitochondria (partial)
28 | MGIGKFLHSAKKFGKAFVGEIMNSLTQTAESFRGVSSQFFDAPNGPSVKQVLIEDEW [MII.K.m] | Mitochondria (partial)
29 | MGIGKFLHSAKKFGKAFVGEIMNSSVRRAQLQVVASSRKQMGRWRSIDAGVDASDDQ [MII.K.c] | Mitochondria
30 | MGIGRFLHSARRFGRAFVGEIMNS [MII.R] | Mitochondria
31 | MGIGRFLHSARRFGRAFVGEIMNSLTQTAESFRGVSSQFFDAPNGPSVKQVLIEDEW [MII.R.m] | Mitochondria (partial)
32 | MGIGRFLHSARRFGRAFVGEIMNSSVRRAQLQVVASSRKQMGRWRSIDAGVDASDDQ [MII.R.c] | Mitochondria
33 | MGLFSKFNKKKIKSGLIKIIKTAGKEAGLEALRTGIDVIGCKIKGEC [E1S.K] | Neither
34 | MGLFSKFNKKKIKSGLIKIIKTAGKEAGLEALRTGIDVIGCKIKGECLTQTAESFRGVSSQFFDAPNGPSVKQVLIEDEW [E1S.K.m] | Neither
35 | MGLFSKFNKKKIKSGLIKIIKTAGKEAGLEALRTGIDVIGCKIKGECSVRRAQLQVVASSRKQMGRWRSIDAGVDASDDQ [E1S.K.c] | Neither
36 | MGLFSRFNRRRIRSGLIRIIRTAGREAGLEALRTGIDVIGCRIRGEC [E1S.R] | Neither
37 | MGLFSRFNRRRIRSGLIRIIRTAGREAGLEALRTGIDVIGCRIRGECLTQTAESFRGVSSQFFDAPNGPSVKQVLIEDEW [E1S.R.m] | Mitochondria (partial)
38 | MGLFSRFNRRRIRSGLIRIIRTAGREAGLEALRTGIDVIGCRIRGECSVRRAQLQVVASSRKQMGRWRSIDAGVDASDDQ [E1S.R.c] | Neither
39 | MKYYGNGVHCTKSGCSVNWGEAFSAGVHRLANGGNGFW [LCA.K] | Neither
40 | MKYYGNGVHCTKSGCSVNWGEAFSAGVHRLANGGNGFWLTQTAESFRGVSSQFFDAPNGPSVKQVLIEDEW [LCA.K.m] | Neither
41 | MKYYGNGVHCTKSGCSVNWGEAFSAGVHRLANGGNGFWSVRRAQLQVVASSRKQMGRWRSIDAGVDASDDQ [LCA.K.c] | Chloroplast (partial)
42 | MKYYGNGVHCTRSGCSVNWGEAFSAGVHRLANGGNGFW [LCA.R] | Neither
43 | MKYYGNGVHCTRSGCSVNWGEAFSAGVHRLANGGNGFWLTQTAESFRGVSSQFFDAPNGPSVKQVLIEDEW [LCA.R.m] | Neither
44 | MKYYGNGVHCTRSGCSVNWGEAFSAGVHRLANGGNGFWSVRRAQLQVVASSRKQMGRWRSIDAGVDASDDQ [LCA.R.c] | Chloroplast (partial)

Same assay, conditions: targeting of the Venus reporter fused to the peptide, expressed in Chlamydomonas reinhardtii; manual assignment from epifluorescence microscopy; full or partial

Row | Sequence | Localisation
45 | MGKIPVKAIKKAGAAIGKGLRAINIASTAHDVYSFFKPKHKKK [SIM.K] | Neither
46 | MGKIPVKAIKKAGAAIGKGLRAINIASTAHDVYSFFKPKHKKKLTQTAESFRGVSSQFFDAPNGPSVKQVLIEDEW [SIM.K.m] | Neither
47 | MGKIPVKAIKKAGAAIGKGLRAINIASTAHDVYSFFKPKHKKKSVRRAQLQVVASSRKQMGRWRSIDAGVDASDDQ [SIM.K.c] | Neither
48 | MGLLLDTLKGAAKDIAGIALEKLKCKITGCKP [R2G.K] | Neither
49 | MGLLLDTLKGAAKDIAGIALEKLKCKITGCKPLTQTAESFRGVSSQFFDAPNGPSVKQVLIEDEW [R2G.K.m] | Mitochondria (partial)
50 | MGLLLDTLKGAAKDIAGIALEKLKCKITGCKPSVRRAQLQVVASSRKQMGRWRSIDAGVDASDDQ [R2G.K.c] | Neither
51 | MGWIRDFGKRIERVGQHTRDATIQTIAVAQQAANVAATLKG [S1D.K] | Neither
52 | MGWIRDFGKRIERVGQHTRDATIQTIAVAQQAANVAATLKGLTQTAESFRGVSSQFFDAPNGPSVKQVLIEDEW [S1D.K.m] | Neither
53 | MGWIRDFGKRIERVGQHTRDATIQTIAVAQQAANVAATLKGSVRRAQLQVVASSRKQMGRWRSIDAGVDASDDQ [S1D.K.c] | Chloroplast
54 | MKYYGNGVSCNKKGCSVDWGKAIGIIGNNAAANLTTGGKAGWKG [EHF.K] | Neither
55 | MKYYGNGVSCNKKGCSVDWGKAIGIIGNNAAANLTTGGKAGWKGLTQTAESFRGVSSQFFDAPNGPSVKQVLIEDEW [EHF.K.m] | Neither
56 | MKYYGNGVSCNKKGCSVDWGKAIGIIGNNAAANLTTGGKAGWKGSVRRAQLQVVASSRKQMGRWRSIDAGVDASDDQ [EHF.K.c] | Chloroplast (partial)
57 | MNIVVYWNFTLWHMDINARNAGCDGEGS [RP1.K] | Neither
58 | MNIVVYWNFTLWHMDINARNAGCDGEGSLTQTAESFRGVSSQFFDAPNGPSVKQVLIEDEW [RP1.K.m] | Neither
59 | MNIVVYWNFTLWHMDINARNAGCDGEGSSVRRAQLQVVASSRKQMGRWRSIDAGVDASDDQ [RP1.K.c] | Neither
